# Data: article PMC10476022 (RSC Advances, 2023)
# Entries after “also recorded” stand apart in the source; their conditions may differ.
# How the values were obtained:
# [1] = Antioxidant potential by DPPH assay
# Text: Assessment of the toxicity is the prerequisite study for the synthetic derivatives. […] AChE enzyme provides the site for the aggregation of the Aβ1–42.
# hAChE = molecular target: T1, hAChE (Homo sapiens, UniProt P22303); assay: biochemical; conditions: for Selectivity ratio: (IC50 of BuChE)/(IC50 of AChE); for IC50: tris-HCl buffer pH 8.0, read-out: IC50 ± SE hAChE
# T1 construct: purchased Sigma Aldrich
# T1 sequence (P22303 32-614): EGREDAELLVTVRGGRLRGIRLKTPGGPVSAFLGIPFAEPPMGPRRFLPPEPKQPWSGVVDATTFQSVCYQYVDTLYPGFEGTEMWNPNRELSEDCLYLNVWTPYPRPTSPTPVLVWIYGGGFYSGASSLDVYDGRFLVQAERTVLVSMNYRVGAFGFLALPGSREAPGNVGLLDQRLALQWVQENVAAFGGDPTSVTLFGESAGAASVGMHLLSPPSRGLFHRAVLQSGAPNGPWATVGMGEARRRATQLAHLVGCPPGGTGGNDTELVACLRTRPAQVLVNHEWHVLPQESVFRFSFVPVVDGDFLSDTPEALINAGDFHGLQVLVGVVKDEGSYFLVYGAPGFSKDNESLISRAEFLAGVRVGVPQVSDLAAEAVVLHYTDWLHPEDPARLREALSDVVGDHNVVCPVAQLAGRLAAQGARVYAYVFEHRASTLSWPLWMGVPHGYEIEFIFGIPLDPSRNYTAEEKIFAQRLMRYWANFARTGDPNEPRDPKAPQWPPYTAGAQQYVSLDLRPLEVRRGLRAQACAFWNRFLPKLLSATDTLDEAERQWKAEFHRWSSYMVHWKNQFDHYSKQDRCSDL
# Description: (§1) Himedia supplied Acetylthiocholine iodide (AthCI), Butyrylthiocholine iodide (BthCI), and 5,5′-dithiobis (2-nitrobenzoic acid) (DTNB-reagent). […] AChE (50 μL, 1.00 U mL^−1) or BuChE (50 μL, 0.6 U mL^−1) and 20 μL of the test or standard compounds were incubated in a 96 well plate for 30 minutes at room temperature. […] The IC50 values were determined by measuring the absorbance of the test and standard substances. Three independent runs of the assays were conducted in triplicate.
# hBuChE = molecular target: T2, hBuChE (Homo sapiens, UniProt P06276); assay: biochemical; format: biochemical; conditions: for IC50: tris-HCl buffer pH 8.0, read-out: IC50 ± SE hBuChE
# T2 construct: purchased Sigma Aldrich
# Description: as §1
# SH-SY5Y cell line = assay: Cell line-based toxicity study (MTT assay); conditions: 72 h
# Description: In recent decades, in vitro cell line research has become commonplace since they are useful for primary optimization and mechanistic investigations before toxicological studies on animals.[29]
# Briefly, the cell lines (density 1 × 10^4 cells per wells) were plated in 96 well plates and incubated for 24 h at 37 °C in a humidified atmosphere with 5% CO2. […] The absorbance was measured at 570 nm, and the percent cell viability was calculated. Each treatment was executed in triplicate and data were presented as a percentage of the control.
# Aβ1–42 = system: T3, Aβ1–42; assay: AChE-induced Aβ1–42 aggregation assay (ThT); format: biochemical
# T3 construct: Aβ1–42, purchased from Sigma, was dissolved in 10 mM phosphate buffer; purchased Sigma
# Description: The Aβ oligomers and aggregates formed with or without AChE and metal ions induce multifaceted toxicity leading to neuronal cell death. […] Aβ1–42, purchased from Sigma, was dissolved in 10 mM phosphate buffer (PBS) of pH 7.5 to get a stock concentration of […]. The test compounds were dissolved in the DMSO and further diluted with PBS. Different proportions of the Aβ1-42: Inhibitor (1 : 0.05, 1 : 1, 1 : 2) were used in the ThT assay. […] The mixtures were incubated at room temperature for 48 hours in the dark.
SMILES,"% free radicle scavenging, mean ± SE ([1]; 50 μM) [%]","% free radicle scavenging, mean ± SE ([1]; 100 μM) [%]",Selectivity ratio (hAChE),IC50 (hAChE) [µM],IC50 (hBuChE) [µM],BuChE inhibition (in words) (hBuChE),concentration with no significant toxicity (SH-SY5Y cell line) [µM],"effect on AChE-induced Aβ1–42 aggregation (in words) (Aβ1–42; 0.5, 10, 20 μM, 48 h incubation)","AChE-induced Aβ aggregation inhibited (Aβ1–42; tested at 0.5, 10 and 20 μM) [%]"
"O=C1O[C@H]([C@@H](O)CO)C(O)=C1O [Ascorbic acid, reference compound]",42.66 ± 1.491,76.76 ± 0.708,,,,,,,
"COc1ccc2c(c1)c(CC(=O)NN=Cc1cccc(O)c1)c(C)n2C(=O)c1ccc(Cl)cc1 [IND-24, (1-(4-Chlorobenzoyl)-5-methoxy-2-methyl-1H-indol-3-yl)-N′-(3-hydroxybenzylidene) aceto-hydrazide]",17.68 ± 0.478,34.34 ± 1.333,7.83,12.5 ± 0.143,98.18 ± 0.12,,,,
"COc1cccc(C=NNC(=O)Cc2c(C)n(C(=O)c3ccc(Cl)cc3)c3ccc(OC)cc23)c1 [IND-25, (1-(4-Chlorobenzoyl)-5-methoxy-2-methyl-1H-indol-3-yl)-N′-(3-methoxybenzylidene) aceto-hydrazide]",11.51 ± 0.748,27.99 ± 1.127,,264.23 ± 0.102,> 1000,inactive on the BuChE enzyme,,,
"COc1ccc2c(c1)c(CC(=O)NN=Cc1ccc(O)cc1)c(C)n2C(=O)c1ccc(Cl)cc1 [IND-30, (1-(4-Chlorobenzoyl)-5-methoxy-2-methyl-1H-indol-3-yl)-N′-(4-hydroxybenzylidene)aceto-hydrazide]",15.19 ± 0.881,30.65 ± 1.010,22.92,4.16 ± 0.063,95.34 ± 0.144,,≤ 30000,effective only at the higher dose (20 μM); also recorded: decreased Aβ aggregation in a concentration-dependent manner; also recorded: active at 20 μM,~50
"COc1ccc2c(c1)c(CC(=O)NN=Cc1ccccc1OC)c(C)n2C(=O)c1ccc(Cl)cc1 [IND-31, (1-(4-Chlorobenzoyl)-5-methoxy-2-methyl-1H-indol-3-yl)-N′-(2-methoxybenzylidene)aceto-hydrazide]",9.75 ± 0.625,26.43 ± 0.887,,421.22 ± 0.086,> 1000,inactive on hBuChE,,,
"COc1ccc2c(c1)c(CC(=O)NN=Cc1c(O)cccc1O)c(C)n2C(=O)c1ccc(Cl)cc1 [IND-40, (1-(4-Chlorobenzoyl)-5-methoxy-2-methyl-1H-indol-3-yl)-N′-(2,6-dihydroxybenzylidene)aceto-hydrazide]",24.10 ± 0.889,50.39 ± 0.930,9.77,70.54 ± 0.133,689.12 ± 0.128,,,,
"COc1ccc2c(c1)c(CC(=O)NN=Cc1cccc(O)c1O)c(C)n2C(=O)c1ccc(Cl)cc1 [IND-42, (1-(4-Chlorobenzoyl)-5-methoxy-2-methyl-1H-indol-3-yl)-N′-(2,3-dihydroxybenzylidene)aceto-hydrazide]",18.21 ± 0.598,38.87 ± 1.012,5.44,122.75 ± 0.086,668.22 ± 0.133,,,,
